Experimental data reported in patent publication US20220023289A1, “Application Of Pyrroloquinoline Quinone In Preparation Of Medicament Used For Preventing And Treating Acute Altitude Sickness And Acute Altitude Hypoxia Injury” (priority 2018, published 2022).

Columns and labels:
[1] = test system: rats exposed to acute altitude hypoxia; assay: Protein metabolism in rats exposed to acute altitude hypoxia; assay type: in vivo, Wistar rat; settings: for albumin (second column): 0.11 g/kg
Method: (§1) Select healthy Wistar rats weight 160-200 g, half female and half male. After feeding for 3 days, these Wistar rats are randomly divided into ten groups according to their body weight, each group has 16±2 rats. The groups are divided as follows: five groups of the hypoxic exposure drug test group, respectively, are given 0.91 mg/kg, 1.83 mg/kg, 3.66 mg/kg, 7.31 mg/kg, and 14.63 mg/kg drugs. […] After continuous intragastric administration for 7 days, the animals in the hypoxic exposure group are simultaneously put into the decompression and hypoxia compound experimental chamber, the hatch is closed, and the pressure is reduced at a speed of 10 m/s. After being raised to an altitude of 6000 m and maintained for 8 hours, the speed in 10 m/s drops is reduced to normal altitude, open the hatch, and then take out the animal, collect blood samples (after standing for 1 hour, the supernatant is centrifuged and stored at −20° C.), and liver tissue samples. Detection indicator includes body weight, serum blood glucose, ATP, lactic acid, endothelin, nitric oxide, SOD, CO, MDA related to oxidative stress, and total protein, albumin, triglycerides, total cholesterol, high-density lipoprotein cholesterol, low-density lipoprotein cholesterol, glutamic pyruvic transaminase, total bilirubin, gluamic oxalacetic transaminase, serum urea nitrogen, creatinine, uric acid, lactate dehydrogenase, creatine kinase, α-hydroxybutyrate dehydrogenase; liver ATP, hepatic glycogen. Except that the formal oxygen control animal group is not put into the decompression and hypoxia compound experimental chamber, other experimental conditions and detection indicators are the same.
(§2) Measure blood glucose, total protein, albumin, triglycerides, total cholesterol, high-density lipoprotein cholesterol, low-density lipoprotein cholesterol, glutamic-pyruvic transaminase, total bilirubin, glutamic oxalacetic transaminase, serum urea nitrogen, creatinine, uric acid, lactate dehydrogenase, creatine kinase, α-hydroxybutyrate dehydrogenase, blood homocysteine by using an automatic blood biochemical analyzer.

[2] = Mice weight before hypoxia tolerance test of simulated 10000 m altitude acute decompression; settings: 0.16 g/kg
[3] = Rat body weight before the acute decompression hypoxia experiment (intragastric 7 days)
Method: as §1

[4] = test system: rats with acute altitude hypoxia injury; assay: Serum energy metabolism indexes (ATP, lactic acid) in rats with acute altitude hypoxia injury; assay type: in vivo, Wistar rat; settings: for serum Lactic acid: 0.11 g/kg
Method: Determination of adenosine triphosphate (ATP): Perform enzyme-linked immunosorbent assay by double-antibody one-step sandwich method. To the coated microwells pre-coated with rat adenosine triphosphate (ATP) capture antibody, add in sequence the specimens, standard, and HRP-labeled detection antibody, and then incubate and wash thoroughly. Use a substrate TMB for color development, TMB is converted into blue under the catalysis of peroxidase and converted into the final yellow color under the action of acid. The color intensity is positively correlated with the rat adenosine triphosphate (ATP) in the sample. […] Determination of lactic acid (LC): Perform enzyme-linked immunosorbent assay by double-antibody one-step sandwich method. To the coated microwells pre-coated with rat lactic acid (LC) capture antibody, add in sequence the specimens, standard, and HRP-labeled detection antibody, and then incubate and wash thoroughly. Use a substrate TMB for color development. TMB is converted into blue under the catalysis of peroxidase and converted into the final yellow color under the action of acid. The color intensity is positively correlated with the rat lactic acid (LC) in the sample.

[5] = test system: rats exposed to acute altitude hypoxia; assay: Myocardial enzyme activity in rats exposed to acute altitude hypoxia; assay type: in vivo, Wistar rat; settings: for Creatine Kinase / Lactate dehydrogenase / α-hydroxybutyrate dehydrogenase: 0.11 g/kg
Method: as §1, §2

[6] = seven days, repeat experiment in male mice

CC(=O)Nc1nnc(S(N)(=O)=O)s1 [Acetazolamide, reference compound]
effect on serum total protein content ([1]; female rats): has been not found | albumin (second column) ([1]; female rats, hypoxia): 29.18 ± 1.68 g/L | effect on serum albumin content ([1]; female rats, normoxia): can slightly increase | albumin (second column) ([1]; female rats, normoxia): 32.13 ± 0.45 g/L | effect on serum total protein content ([1]; male rats exposed to hypoxia): is not found | albumin (second column) ([1]; male rats, hypoxia): 27.87 ± 1.140 g/L | Mice weight Female 1 day ([2]; administration for 14 days): 15.24 ± 0.89 g | Mice weight Female 7 days ([2]; administration for 14 days): 19.35 ± 3.12 g | Mice weight Male 1 day ([2]; administration for 14 days): 14.66 ± 1.52 g | Mice weight Male 7 days ([2]; administration for 14 days): 16.29 ± 3.25 g | Mice weight Male 14 days ([2]; administration for 14 days): 21.16 ± 3.61 g | Mice weight Female ([2]; administration for three days): 17.80 ± 0.94 g | Mice weight Male ([2]; administration for three days): 18.29 ± 0.85 g | Mice weight Male 1 day [2, 6]: 19.53 ± 0.93 g | Mice weight Male 7 days [2, 6]: 21.35 ± 2.47 g | Mice weight Female ([2]; single dose test): 17.31 ± 1.22 g | Mice weight Male ([2]; single dose test): 19.47 ± 0.57 g | rat body weight Female 1 day ([3]; 0.11 g/kg): 153.4 ± 6.1 g | rat body weight Female 7 days ([3]; 0.11 g/kg): 163.3 ± 6.76 g | rat body weight Male 1 day ([3]; 0.11 g/kg): 172.4 ± 6.8 g | rat body weight Male 7 days ([3]; 0.11 g/kg): 189.1 ± 11.8 g | effect on body weight ([3]; female rats, 7 days): no significant effects | effect on weight ([3]; male rats, 7 days): decreased | serum Lactic acid ([4]; female rats, hypoxia): 132.16 ± 10.42 ng/L | effect on serum ATP and lactic acid content ([4]; female rats, last sentence of b195 (normoxia per Table 37)): reducing | serum Lactic acid ([4]; female rats, normoxia): 100.54 ± 7.13 ng/L | effect on serum ATP and lactic acid content ([4]; hypoxia exposed female rats): no significant effects | effect on serum ATP ([4]; male rats): no significant effects | effect on serum lactic acid content ([4]; male rats): reducing | serum Lactic acid ([4]; male rats, hypoxia): 161.46 ± 6.94 ng/L | Creatine Kinase ([5]; female rats, hypoxia): 503.40 ± 137.62 U/L | Lactate dehydrogenase ([5]; female rats, hypoxia): 534.00 ± 179.23 U/L | α-hydroxybutyrate dehydrogenase ([5]; female rats, hypoxia): 230.20 ± 75.49 U/L | effect on serum lactic dehydrogenase, creatine kinase, α-hydroxybutyrate dehydrogenase activity ([5]; female rats, normoxia): no significant effects | Creatine Kinase ([5]; female rats, normoxia): 697.67 ± 222.15 U/L | Lactate dehydrogenase ([5]; female rats, normoxia): 998.67 ± 285.56 U/L | α-hydroxybutyrate dehydrogenase ([5]; female rats, normoxia): 430.33 ± 134.10 U/L | effect on serum lactic dehydrogenase, creatine kinase, α-hydroxybutyrate dehydrogenase activity ([5]; hypoxia exposed female rats): no significant effects | effect on serum lactate dehydrogenase, creatine kinase, α-hydroxybutyrate dehydrogenase ([5]; hypoxia exposed male rats): has not been found | Creatine Kinase ([5]; male rats, hypoxia): 352.43 ± 138.11 U/L | Lactate dehydrogenase ([5]; male rats, hypoxia): 303.86 ± 174.67 U/L | α-hydroxybutyrate dehydrogenase ([5]; male rats, hypoxia): 126.29 ± 67.51 U/L
